Test results as given in patent US6413495B1, “X-ray intercepting metal complexes of chlorin derivatives” (Meiji Seika Kaisha, Ltd., priority 1998, dated 2002).

Assays:
CD-1 mice (male) [1] = details: oral administration; cited from earlier work
[2] = system: MKSA cells (solid ascites carcinoma in the abdominal region); experiment: Test Example 1: detection and therapy of tumor tissue by X-ray radiography (solid ascites carcinoma); type: in vivo, Male Balb/c mice
Description: (§1) Male Balb/c mice having a body weight of 16˜20 g (five mice per group) were inoculated, in their abdominal region, with MKSA cells to form a solid ascites carcinoma in the abdominal region of mouse. The mono-L-aspartyl chlorin e6-gold complex sodium salt (the product of Example 2 above) was administered at a dose of 0.01˜0.04 mg in the form of a physiological saline solution of said gold complex sodium salt to the cancer-bearing mice through their tail vein. At the end of one hour to three hours after the administration, the mice were anesthetized with nembutal. An X-ray beam containing the X-ray of the wavelength of 0.153 Å was irradiated from outside of the body to the abdominal region of the mice for an appropriate time.
X-ray image was formed by allowing the X-ray to pass through the abdominal region of mice and to expose and sensitize an X-ray film.
Thus, it was found and confirmed that the gold complex of the chlorin e6 derivative as administered to mice had exerted a cytocidal action to the ascites carcinoma cells upon the irradiation of X-ray to mice.

[3] = system: PC-10 cells originated from human lung cancer; experiment: Test Example 3: X-ray radiography of PC-10 solid cancer on the back of nude mice; type: in vivo; details: nude mice with PC-10 solid cancer on the back; procedure of Test Example 1
Description: as §1
The procedure of Test Example 1 was repeated except that the ascites carcinoma-bearing used in Test Example 1 were replaced by nude mice which had on the back of the body a solid cancer as formed by transplantation of PC-10 cells originated from human lung cancer.

CD-1 mice (male) [4] = experiment: Acute toxicity by oral administration to mice; type: in vivo
Description: The acute toxicity, as tested by oral administration to CD-1 mice (male), of mono-L-aspartyl chlorin e6 tetra-sodium salt is already known to be such that its 50% lethal dose is 164 mg/kg, and thus the compound is of a low toxicity (refer to Japanese Patent Application Publication Kokai Hei 9-71531).

[5] = system: lesions of arteriosclerosis of artery; experiment: Test Example 2: detection and therapy of lesions of arteriosclerosis by X-ray radiography; type: in vivo, rabbit; details: 8 mg via ear vein
Description: To a rabbit having a high cholesteremia and a body weight of about 4 kg was administered 8 mg of the mono-L-aspartyl chlorin e6-gold complex sodium salt (the product of Example 2) through the ear vein. One hour after the administration, anesthesia with nembutal was done to the rabbit. Then, the whole body of the rabbit was irradiated for an appropriate time with an X-ray beam containing the X-ray of the wavelength of 0.153 Å which suited to the electron absorption of the K-shell of gold atom. The X-ray which had passed through the rabbit was allowed to sensitize an X-ray film and to produce X-ray image.

Row | Compound | 50% lethal dose (acute toxicity) (CD-1 mice (male) [1]) | X-ray image of the solid cancer on X-ray film ([2]; 0.01~0.04 mg i.v. (tail vein), X-ray beam containing 0.153 Å irradiated 1-3 hours after administration) | dimensions of the solid cancer compared with those at the time of the X-ray photograph ([2]; one week after the X-ray irradiation, 0.01~0.04 mg i.v.) | X-ray image of the solid cancer on X-ray film [3] | acute toxicity upon oral administration, compared with mono-L-aspartyl chlorin e6 tetrasodium salt (CD-1 mice (male) [4]) | X-ray image of the lesions of arteriosclerosis ([5]; rabbit with high cholesteremia, X-ray beam containing 0.153 Å one hour after administration) | dimensions of the lesions of arteriosclerosis compared with those at the time of X-ray irradiation ([5]; one week after the X-ray irradiation)
1 | C=Cc1c(C)c2cc3nc(c(CC(=O)N[C@@H](CC(=O)[O-])C(=O)[O-])c4[nH]c(cc5nc(cc1[nH]2)C(C)=C5CC)c(C)c4C(=O)[O-])[C@@H](CCC(=O)[O-])[C@@H]3C.[Na+].[Na+].[Na+].[Na+] [mono-L-aspartyl chlorin e6 tetra-sodium salt] | 164 mg/kg | – | – | – | – | – | –
2 | mono-L-aspartyl chlorin e6-gold complex sodium salt [Example 2] | – | sharply imaged | reduced significantly | Sharp X-ray image | substantially same as that of the mono-L-aspartyl chlorin e6 tetrasodium salt | sharp X-ray image | clearly diminished
